Structures can show the parent of a compound that is named as a salt.
Key:
human recombinant GSK-3β = human recombinant GSK-3β (Homo sapiens, UniProt P49841); experiment: GSK-3β kinase assay, LANCE Ultra TR-FRET; format: biochemical
Method: GSK-3β and FYNα kinase assays were run in 384-well microplates (OptiPlate-384, White, PerkinElmer) in a total reaction volume of 20 μL. The inhibitory potency against human recombinant GSK-3β and FYNα (Carna Biosciences) was evaluated using the LANCE Ultra (PerkinElmer) time-resolved fluorescence resonance energy transfer (TR-FRET) by measuring the phosphorylation of the ULight-labeled substrate, according to the manufacturer's instructions. […] Briefly, test compounds and staurosporine (reference compound) or DMSO (control) are mixed with the enzyme (GSK-3β: 2 nM and FYNα: 1 nM) in a buffer containing 50 mM HEPES (pH 7.5), 1 mM EGTA, 10 mM MgCl2, 2 mM DTT, and 0.01% Tween-20. […] Following incubation, the reaction is stopped by adding 6 mM EDTA. After 5 min, the antiphospho antibody labeled with europium chelate is added. After 1 more hour, the kinase reaction is monitored by irradiation at 320 nm and the fluorescence measured at 615 and 665 nm, using EnVision 2014 Multilabel Reader (PerkinElmer). The calculated signal ratio at 665/615 nm is proportional to the extent of ULight-substrate phosphorylation. The compounds were tested at 11 different concentrations ranging from 3 nM up to 100 μM in triplicate. […] The results were expressed as a percent inhibition of the control enzyme activity. Dose-response curves were run in at least three independent experiments, performed in three technical replicates. IC50 values (concentrations causing half-maximal enzyme inhibition) were determined by nonlinear regression analysis of the Log[concentration]/response curves generated with mean replicate values using a four parameter Hill equation curve fitting with GraphPad Prism 8 (GraphPad Software Inc., CA-USA).

FYNα = FYNα (Homo sapiens, UniProt P06241); experiment: FYNα kinase assay, LANCE Ultra TR-FRET; format: biochemical; conditions: for inhibition at 50 µM / Fyn % Inhibition @ 50 μM: mean ± SD, n.i. = no inhibition; for inhibition at 50 µM: read-out: Fyn % Inhibition @ 50 μM; for IC50: mean ± SD of at least three independent determinations, ATP near Km, read-out: Fyn IC50
Sequence of FYNα (P06241 whole entry): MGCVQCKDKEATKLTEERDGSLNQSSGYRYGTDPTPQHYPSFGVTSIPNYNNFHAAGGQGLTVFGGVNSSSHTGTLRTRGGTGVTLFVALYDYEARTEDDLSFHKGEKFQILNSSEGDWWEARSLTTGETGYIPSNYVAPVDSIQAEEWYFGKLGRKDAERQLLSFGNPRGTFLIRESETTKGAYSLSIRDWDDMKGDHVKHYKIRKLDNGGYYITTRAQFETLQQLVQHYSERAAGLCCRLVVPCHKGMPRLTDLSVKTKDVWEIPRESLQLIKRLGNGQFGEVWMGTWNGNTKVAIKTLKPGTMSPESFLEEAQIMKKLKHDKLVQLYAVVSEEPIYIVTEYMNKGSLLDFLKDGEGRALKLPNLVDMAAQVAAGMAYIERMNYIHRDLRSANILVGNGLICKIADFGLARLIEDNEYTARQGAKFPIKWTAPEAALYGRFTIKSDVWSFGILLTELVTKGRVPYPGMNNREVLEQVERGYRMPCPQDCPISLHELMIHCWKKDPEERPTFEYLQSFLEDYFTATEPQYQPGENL
Method: GSK-3β and FYNα kinase assays were run in 384-well microplates (OptiPlate-384, White, PerkinElmer) in a total reaction volume of 20 μL. The inhibitory potency against human recombinant GSK-3β and FYNα (Carna Biosciences) was evaluated using the LANCE Ultra (PerkinElmer) time-resolved fluorescence resonance energy transfer (TR-FRET) by measuring the phosphorylation of the ULight-labeled substrate, according to the manufacturer’s instructions. The synthetic peptide surrounding Ser641 of human muscle glycogen synthase (ULight-GS (Ser641/pSer657)) and the synthetic 28-amino acid peptide containing eight Tyr residues placed in different amino acid contexts (ULightTM-TK (PT66)) were selected as specific substrates for GSK-3β and FYNα, respectively. Briefly, test compounds and staurosporine (reference compound) or DMSO (control) are mixed with the enzyme (GSK-3β: 2 nM and FYNα: 1 nM) in a buffer containing 50 mM HEPES (pH 7.5), 1 mM EGTA, 10 mM MgCl2, 2 mM DTT, and 0.01% Tween-20. […] Following incubation, the reaction is stopped by adding 6 mM EDTA. After 5 min, the antiphospho antibody labeled with europium chelate is added. After 1 more hour, the kinase reaction is monitored by irradiation at 320 nm and the fluorescence measured at 615 and 665 nm, using EnVision 2014 Multilabel Reader (PerkinElmer). The calculated signal ratio at 665/615 nm is proportional to the extent of ULight-substrate phosphorylation. The compounds were tested at 11 different concentrations ranging from 3 nM up to 100 μM in triplicate. […] The results were expressed as a percent inhibition of the control enzyme activity.
Dose–response curves were run in at least three independent experiments, performed in three technical replicates. IC50 values (concentrations causing half-maximal enzyme inhibition) were determined by nonlinear regression analysis of the Log[concentration]/response curves generated with mean replicate values using a four parameter Hill equation curve fitting with GraphPad Prism 8 (GraphPad Software Inc., CA-USA).

[1] = 50 μM, mean ± SD, n.i. = no inhibition

Sequence of human recombinant GSK-3β (P49841 whole entry): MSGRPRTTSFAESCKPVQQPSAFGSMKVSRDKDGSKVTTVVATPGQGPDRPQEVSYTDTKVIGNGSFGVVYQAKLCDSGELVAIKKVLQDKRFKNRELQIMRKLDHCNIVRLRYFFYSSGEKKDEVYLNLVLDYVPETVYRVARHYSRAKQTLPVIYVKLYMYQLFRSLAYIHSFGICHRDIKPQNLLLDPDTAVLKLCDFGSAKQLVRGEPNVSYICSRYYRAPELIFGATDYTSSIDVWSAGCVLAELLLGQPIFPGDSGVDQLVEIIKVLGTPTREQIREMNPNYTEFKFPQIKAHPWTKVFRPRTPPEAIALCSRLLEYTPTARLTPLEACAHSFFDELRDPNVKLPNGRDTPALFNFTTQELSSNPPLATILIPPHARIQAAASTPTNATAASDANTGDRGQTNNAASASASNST

inhibition at 50 µM (human recombinant GSK-3β; [1]) [%]	Fyn % Inhibition @ 50 μM (FYNα)	IC50 (FYNα) [µM]	Compound	also measured
65.8	–	–	CNc1nc(-c2c[nH]c3ncccc23)cs1 [Compound 1, N-Methyl-4-(1H-pyrrolo[2,3-b]pyridin-3-yl)thiazol-2-amine Hydrobromide]	inhibition at 50 µM (FYNα): 22.3%
54.9	n.i.	–	Br.CCCCNc1nc(-c2c[nH]c3ncccc23)cs1 [Compound 2, N-Butyl-4-(1H-pyrrolo[2,3-b]pyridin-3-yl)thiazol-2-amine Hydrobromide]	–
58.8	–	–	COCCNc1nc(-c2c[nH]c3ncccc23)cs1 [Compound 3, N-(2-Methoxyethyl)-4-(1H-pyrrolo[2,3-b]pyridin-3-yl)thiazol-2-amine Hydrobromide]	inhibition at 50 µM (FYNα): 41.7%
61.6	–	–	C=CCNc1nc(-c2c[nH]c3ncccc23)cs1 [Compound 4, N-Allyl-4-(1H-pyrrolo[2,3-b]pyridin-3-yl)thiazol-2-amine Hydrobromide]	inhibition at 50 µM (FYNα): 28.5%
37.4	n.i.	–	Br.c1cnc2[nH]cc(-c3csc(NC4CCCCC4)n3)c2c1 [Compound 5, N-Cyclohexyl-4-(1H-pyrrolo[2,3-b]pyridin-3-yl)thiazol-2-amine Hydrobromide]	–
–	–	–	c1ccc(Nc2nc(-c3c[nH]c4ncccc34)cs2)cc1 [Compound 6, N-Phenyl-4-(1H-pyrrolo[2,3-b]pyridin-3-yl)thiazol-2-amine]	inhibition at 50 µM (FYNα): 40%
–	–	2.04 ± 0.53	c1ccc(CNc2nc(-c3c[nH]c4ncccc34)cs2)cc1 [Compound 7, N-Benzyl-4-(1H-pyrrolo[2,3-b]pyridin-3-yl)thiazol-2-amine Hydrobromide]	–
5.1	n.i.	–	Br.c1ccc2c(Nc3nc(-c4c[nH]c5ncccc45)cs3)cccc2c1 [Compound 8, N-(Naphthalen-1-yl)-4-(1H-pyrrolo[2,3-b]pyridin-3-yl)thiazol-2-amine Hydrobromide]	–
32.7	–	–	Clc1ccccc1Nc1nc(-c2c[nH]c3ncccc23)cs1 [Compound 9, N-(2-Chlorophenyl)-4-(1H-pyrrolo[2,3-b]pyridin-3-yl)thiazol-2-amine Hydrobromide]	inhibition at 50 µM (FYNα): 55%
24.1	–	–	c1ccc(Nc2nc(-c3c[nH]c4ncccc34)cs2)nc1 [Compound 10, N-(Pyridin-2-yl)-4-(1H-pyrrolo[2,3-b]pyridin-3-yl)thiazol-2-amine Hydrobromide]	inhibition at 50 µM (FYNα): 3.7%
50.1	n.i.	–	Br.Cc1ccc(Nc2nc(-c3c[nH]c4ncccc34)cs2)cc1 [Compound 11, 4-(1H-Pyrrolo[2,3-b]pyridin-3-yl)-N-(p-tolyl)thiazol-2-amine Hydrobromide]	–
34.6	n.i.	–	Br.COc1ccc(Nc2nc(-c3c[nH]c4ncccc34)cs2)cc1 [Compound 12, N-(4-Methoxyphenyl)-4-(1H-pyrrolo[2,3-b]pyridin-3-yl)thiazol-2-amine Hydrobromide]	–
14.8	n.i.	–	Br.Clc1ccc(Nc2nc(-c3c[nH]c4ncccc34)cs2)cc1 [Compound 13, N-(4-Chlorophenyl)-4-(1H-pyrrolo[2,3-b]pyridin-3-yl)thiazol-2-amine Hydrobromide]	–
8	n.i.	–	Br.O=[N+]([O-])c1ccc(Nc2nc(-c3c[nH]c4ncccc34)cs2)cc1 [Compound 14, N-(4-Nitrophenyl)-4-(1H-pyrrolo[2,3-b]pyridin-3-yl)thiazol-2-amine Hydrobromide]	–
–	–	–	CN(C)c1ccc(Nc2nc(-c3c[nH]c4ncccc34)cs2)cc1 [Compound 15, N ^1-(4-(1H-Pyrrolo[2,3-b]pyridin-3-yl)thiazol-2-yl)-N,^4 N ^4-dimethylbenzene-1,4-diamine Hydrobromide]	inhibition at 50 µM (FYNα): 11.4%
–	–	–	Nc1ccc(Nc2nc(-c3c[nH]c4ncccc34)cs2)cc1 [Compound 16]	inhibition at 50 µM (FYNα): 42.9%

inhibition at 50 µM (human recombinant GSK-3β; [1]) [%]	Fyn % Inhibition @ 50 μM (FYNα)	IC50 (FYNα) [µM]	Compound	also measured
–	–	7.29 ± 1.03	COc1ccccc1CNc1nc(-c2c[nH]c3ncccc23)cs1 [Compound 17, N-(2-Methoxybenzyl)-4-(1H-pyrrolo[2,3-b]pyridin-3-yl)thiazol-2-amine Hydrobromide]	–
–	–	5.37 ± 1.29	Clc1ccccc1CNc1nc(-c2c[nH]c3ncccc23)cs1 [Compound 18, N-(2-Chlorobenzyl)-4-(1H-pyrrolo[2,3-b]pyridin-3-yl)thiazol-2-amine Hydrobromide]	–
–	–	4.71 ± 0.55	Clc1cccc(CNc2nc(-c3c[nH]c4ncccc34)cs2)c1 [Compound 19, N-(3-Chlorobenzyl)-4-(1H-pyrrolo[2,3-b]pyridin-3-yl)thiazol-2-amine Hydrobromide]	–
–	n.i.	–	Br.Clc1ccc(CNc2nc(-c3c[nH]c4ncccc34)cs2)cc1 [Compound 20, N-(4-Chlorobenzyl)-4-(1H-pyrrolo[2,3-b]pyridin-3-yl)thiazol-2-amine Hydrobromide]	–
–	–	7.1 ± 0.47	Fc1ccc(CNc2nc(-c3c[nH]c4ncccc34)cs2)cc1 [Compound 21, N-(4-Fluorobenzyl)-4-(1H-pyrrolo[2,3-b]pyridin-3-yl)thiazol-2-amine Hydrobromide]	–
–	–	–	Cc1ccc(CNc2nc(-c3c[nH]c4ncccc34)cs2)cc1 [Compound 22, N-(4-Methylbenzyl)-4-(1H-pyrrolo[2,3-b]pyridin-3-yl)thiazol-2-amine Hydrobromide]	inhibition at 100 µM (human recombinant GSK-3β; read-out: GSK-3β percentage of inhibition at the highest dose tested (100 μM)): 77.1%
–	–	5.21 ± 0.51	O=[N+]([O-])c1ccc(CNc2nc(-c3c[nH]c4ncccc34)cs2)cc1 [Compound 24, N-(4-Nitrobenzyl)-4-(1H-pyrrolo[2,3-b]pyridin-3-yl)thiazol-2-amine Hydrobromide]	–
–	–	18.5 ± 2.49	Nc1ccc(CNc2nc(-c3c[nH]c4ncccc34)cs2)cc1 [Compound 25]	–
–	–	15 ± 1.26	c1cnc(CNc2nc(-c3c[nH]c4ncccc34)cs2)nc1 [Compound 29, N-(Pyrimidin-2-ylmethyl)-4-(1H-pyrrolo[2,3-b]pyridin-3-yl)thiazol-2-amine Hydrobromide]	–
–	–	7.39 ± 0.37	c1cnc2[nH]cc(-c3csc(NCc4cnccn4)n3)c2c1 [Compound 30, N-(Pyrazin-2-ylmethyl)-4-(1H-pyrrolo[2,3-b]pyridin-3-yl)thiazol-2-amine Hydrobromide]	–
–	–	–	c1ccc(CCNc2nc(-c3c[nH]c4ncccc34)cs2)cc1 [Compound 31, N-Phenethyl-4-(1H-pyrrolo[2,3-b]pyridin-3-yl)thiazol-2-amine Hydrobromide]	IC50 (human recombinant GSK-3β; mean ± SD of at least three independent determinations, ATP near Km): 7.5 ± 1.29 µM
–	n.i.	–	Br.O=C(Nc1nc(-c2c[nH]c3ncccc23)cs1)c1ccccc1 [Compound 32, N-(4-(1H-Pyrrolo[2,3-b]pyridin-3-yl)thiazol-2-yl)benzamide Hydrobromide]	–
–	n.i.	–	Br.c1ccc(CNc2nc(-c3c[nH]c4ccccc34)cs2)cc1 [Compound 34]	GSK-3β % Inhibition @ 50 μM (human recombinant GSK-3β; [1]): n.i.
–	n.i.	–	Br.Clc1cccc2c(-c3csc(NCc4ccccc4)n3)c[nH]c12 [Compound 37]	–
–	–	0.55 ± 0.02	Brc1cnc2[nH]cc(-c3csc(NCc4ccccc4)n3)c2c1 [Compound 38, N-Benzyl-4-(5-bromo-1H-pyrrolo[2,3-b]pyridin-3-yl)thiazol-2-amine Hydrobromide]	–
–	–	0.39 ± 0.11	Cc1sc(NCc2ccccc2)nc1-c1c[nH]c2ncccc12 [Compound 39, N-Benzyl-5-methyl-4-(1H-pyrrolo[2,3-b]pyridin-3-yl)thiazol-2-amine Hydrobromide]	–
